Experimental data: PMC3082517 (PLoS Biology, 2011)
Structures can show the parent of a compound that is named as a salt.

Columns and labels:
[1] = target: p75NTR (Homo sapiens) (UniProt P08138); details: cited from earlier work
[2] = target: TrkA receptor; details: extracellular and cytoplasmic juxtamembrane domains of TrkA; read-out: Kd of binding to TrkA receptor; cited from earlier work
[3] = target: T1, TrkA (Rattus norvegicus, UniProt P35739); test: TrkA phosphorylation in HEK293^TrkA transfectants (anti-tyrosine IP, Western blot); format: cell-based; parameters: expressed in transfected cells; host or cells: HEK293; details: 10 min (and 20 min), steroids 100 nM, NGF 100 ng/ml
T1 sequence (P35739 33-799): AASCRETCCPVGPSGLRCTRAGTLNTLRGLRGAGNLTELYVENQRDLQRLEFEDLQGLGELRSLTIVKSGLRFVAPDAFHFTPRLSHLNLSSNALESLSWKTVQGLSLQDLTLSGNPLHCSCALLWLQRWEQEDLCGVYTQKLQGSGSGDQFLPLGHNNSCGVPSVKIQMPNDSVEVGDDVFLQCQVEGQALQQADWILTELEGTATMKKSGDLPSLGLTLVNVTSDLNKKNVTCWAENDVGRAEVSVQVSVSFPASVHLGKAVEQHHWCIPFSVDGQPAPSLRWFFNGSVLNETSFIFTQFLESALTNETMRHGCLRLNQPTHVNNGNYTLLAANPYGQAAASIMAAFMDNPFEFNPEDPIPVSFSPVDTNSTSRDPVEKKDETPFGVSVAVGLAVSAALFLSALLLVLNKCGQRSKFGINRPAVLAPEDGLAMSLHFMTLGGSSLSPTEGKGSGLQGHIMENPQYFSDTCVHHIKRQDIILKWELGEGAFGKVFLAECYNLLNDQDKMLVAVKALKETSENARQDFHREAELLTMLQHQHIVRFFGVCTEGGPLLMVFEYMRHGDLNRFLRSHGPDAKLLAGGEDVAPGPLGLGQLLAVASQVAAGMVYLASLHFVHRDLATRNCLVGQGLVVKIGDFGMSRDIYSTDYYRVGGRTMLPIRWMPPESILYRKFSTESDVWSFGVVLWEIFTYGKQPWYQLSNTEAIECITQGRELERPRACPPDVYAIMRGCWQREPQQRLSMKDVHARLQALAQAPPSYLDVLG
Experimental: (§1) HEK293 cells were transfected with the appropriate plasmids (TrkA, p75^NTR, RIP2, TRAF-6, and RhoGDI) by using Lipofectamine 2000 (Invitrogen). Cells were harvested 48 h after transfection and suspended in lysis buffer (50 mM Tris-HCl, 0.15 M NaCl, 1% Triton-X100, pH 7.4) supplemented with protease inhibitors. Lysates were precleared for 1 h with Protein A-Sepharose beads (Amersham) and immunoprecipitated with the appropriate antibody (pTyr, Flag, or c-myc) overnight at 4°C. Protein A Sepharose beads were incubated with the lysates for 4 h at 4°C with gentle shaking. […] Beads were collected by centrifugation, washed four times with lysis buffer, and resuspended in SDS loading buffer. Proteins were separated by SDS/PAGE, followed by immunoblotting with specific antibodies.
(§2) PC12 or HEK293 cells lysates were electrophoresed through a 12% SDS-polyacrylamide gel, and then proteins were transferred to nitrocellulose membranes, which were processed according to standard Western blotting procedures, as previously described. To detect protein levels, membranes were incubated with the appropriate antibodies: Bcl-2 (dilution 1∶500), phospho TrkA (dilution 1∶500), total TrkA (dilution1∶500), p75^NTR (dilution 1∶500), phospho Shc (dilution 1∶1000), total Shc (dilution 1∶1000), phospho Akt (dilution 1∶500), total Akt (dilution 1∶500), phospho ERK1/2 (dilution 1∶500), and total ERK1/2 (dilution 1∶500). Proteins were visualized using the ECL Western blotting kit (ECL Amersham Biosciences, UK), and blots were exposed to Kodak X-Omat AR films. A PC-based Image Analysis program was used to quantify the intensity of each band (Image Analysis, Inc., Ontario, Canada).
(§3) To normalize for protein content the blots were stripped and stained with GAPDH antibody (dilution 1∶1000); the concentration of each target protein was normalized versus GAPDH. Where phosphorylation of TrkA or kinases was measured, membranes were first probed for the phosphorylated form of the protein, then stripped, and probed for the total protein.

[4] = target: T2, p75^NTR (Rattus norvegicus, UniProt P07174); test: Heterologous [3H]-DHEA displacement, HEK293^p75NTR cell membranes; format: binding; details: HEK293^p75NTR membranes, 1 nM [3H]-DHEA; read-out: IC50 of [3H]-DHEA displacement
T2 construct: expressed in transfected cells; host or cells: HEK293
T2 sequence (P07174 30-425): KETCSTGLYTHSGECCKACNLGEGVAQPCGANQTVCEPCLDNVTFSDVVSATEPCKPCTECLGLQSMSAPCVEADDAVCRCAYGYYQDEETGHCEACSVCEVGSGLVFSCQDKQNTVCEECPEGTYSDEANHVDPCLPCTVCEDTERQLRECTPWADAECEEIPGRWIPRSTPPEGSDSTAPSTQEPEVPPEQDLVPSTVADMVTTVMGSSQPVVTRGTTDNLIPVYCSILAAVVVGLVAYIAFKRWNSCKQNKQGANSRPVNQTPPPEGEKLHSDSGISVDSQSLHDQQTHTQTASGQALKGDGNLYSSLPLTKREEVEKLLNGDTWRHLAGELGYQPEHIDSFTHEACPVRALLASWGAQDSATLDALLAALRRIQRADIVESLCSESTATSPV

[5] = target: T1, TrkA; test: Heterologous [3H]-DHEA displacement, HEK293^TrkA cell membranes; format: binding; parameters: expressed in transfected cells; host or cells: HEK293; details: HEK293^TrkA membranes, 1 nM [3H]-DHEA; read-out: IC50 of [3H]-DHEA displacement
[6] = target: T1, TrkA; test: Tyr490 TrkA phosphorylation in naive PC12 cells (Western blot); format: cell-based; parameters: PC12 cells, endogenously expressing TrkA receptors; endogenous in cells; host or cells: PC12; details: 10 min, DHEA 100 nM, NGF 100 ng/ml
Experimental: as §2, §3

[7] = tested on: Shc, ERK1/2, and Akt kinases; test: Phosphorylation of Shc, ERK1/2 and Akt kinases in PC12 cells (Western blot); format: cell-based; details: serum deprived naive PC12 cells, 10 min; 100 nM DHEA, 100 ng/ml NGF
Experimental: as §2, §3

[8] = target: T1, TrkA; test: [125I]-NGF displacement, HEK293^TrkA cell membranes; format: binding; parameters: expressed in transfected cells; host or cells: HEK293; details: unpublished data
[9] = target: T1, TrkA; test: [3H]-DHEA saturation binding to membranes of HEK293 cells transfected with TrkA cDNA; parameters: expressed in transfected cells; host or cells: HEK293; details: KD of [3H]-DHEA binding (Scatchard analysis), n = 3
[10] = target: T2, p75^NTR; test: [125I]-NGF displacement, HEK293^p75NTR cell membranes; format: binding; details: unpublished data
[11] = target: T2, p75^NTR; test: [3H]-DHEA saturation binding to membranes of HEK293 cells transfected with p75NTR cDNA; details: KD of [3H]-DHEA binding (Scatchard analysis), n = 3
[12] = tested on: p75^NTR; test: p75NTR protein levels in serum deprived PC12 cells (immunoblotting); format: cell-based; details: serum deprived PC12, between 24 and 48 h; 100 nM DHEA, 100 ng/ml NGF; n = 5, p<0.01
Experimental: as §2, §3

[13] = tested on: sympathetic SCG neurons; test: NGF deprivation-induced apoptosis of superior cervical ganglia sympathetic neurons, Annexin V; format: cell-based, rat; details: 100 nM DHEA, medium lacking NGF with anti-NGF antiserum
Experimental: Cells were plated on collagen coated 24-well plates and cultured for 5 d prior to use.

[14] = tested on: TrkA positive sensory neurons of dorsal root ganglia; test: Apoptotic loss of sensory neurons in dorsal root ganglia of NGF null mouse embryos; details: ngf−/− embryos at E14, mothers treated daily with DHEA 2 mg
Experimental: ngf+/− mice [13] were obtained from the Jackson Laboratory and maintained on C57BL/6 background. […] Animals were housed in cages maintained under a constant 12 h light–dark cycle at 21–23°C, with free access to food and tap water.
Mice heterozygous for the NGF null mutation were interbred to obtain mice homozygous for the NGF gene disruption and the first day of gestation determined by the discovery of a copulation plug. The mothers were treated daily with a subcutaneous injection of DHEA (2 mg/day) or vehicle (4.5% ethanol in 0.9% saline) starting from the third day after gestation. Animals were collected at E14. At the day of collection the mothers were deeply anesthetized with sodium pentobarbital (Dolethal 0.7 ml/kg i.p.) followed by transcardial perfusion with saline solution containing heparin for about 7 min, and with 4% PFA, 15% Picric Acid, 0.05% GA in phosphate buffer 0.1 M, for another 7 min. After the perfusion the embryos were collected and maintained in the same fixative overnight at 4°C. Embryos were then washed in 0.1 M phosphate buffer and cryoprotected by using 10% sucrose followed by 20% sucrose overnight at 4°C. Finally, embryos were frozen in OCT in iso-pentane over liquid nitrogen for 5 min and the frozen tissues were stored for later use at −80°C. The samples were sectioned (20 µm) and mounted onto Superfrost plus slides (Menzel-Glaser J1800AMNZ). Slides were left to air-dry overnight at room temperature (RT) and were then either used immediately or were fixed in cold acetone for 1 min and stored at −80°C for later use.
Stored or fresh slides were fixed for 15 min in cold acetone at 4°C and left to dry for 10 min at room temperature. They were then washed in PB 0.1 M, then in TBS, and incubated for 45 min with 10% horse serum in TBS-T 0.1%. […] Sections were incubated for 4 h at RT and overnight at 4°C; they were then washed in TBS-T 0.1% and the anti-rabbit secondary antibodies (Alexa Fluor 488 and Alexa Fluor 546, 1∶1000 in TBS-T 0.1%) were added for 6 h at RT. […]

[15] = target: T3, p75^NTR with effectors TRAF6, RIP2, RhoGDI (Rattus norvegicus, UniProt P07174); test: Co-immunoprecipitation of p75NTR with effectors TRAF6, RIP2, RhoGDI in co-transfected HEK293 cells; format: cell-based; details: co-transfected HEK293, 30 min; 100 nM DHEA, 100 ng/ml NGF
T3 construct: expressed in transfected cells; host or cells: HEK293
T3 sequence (P07174 30-425): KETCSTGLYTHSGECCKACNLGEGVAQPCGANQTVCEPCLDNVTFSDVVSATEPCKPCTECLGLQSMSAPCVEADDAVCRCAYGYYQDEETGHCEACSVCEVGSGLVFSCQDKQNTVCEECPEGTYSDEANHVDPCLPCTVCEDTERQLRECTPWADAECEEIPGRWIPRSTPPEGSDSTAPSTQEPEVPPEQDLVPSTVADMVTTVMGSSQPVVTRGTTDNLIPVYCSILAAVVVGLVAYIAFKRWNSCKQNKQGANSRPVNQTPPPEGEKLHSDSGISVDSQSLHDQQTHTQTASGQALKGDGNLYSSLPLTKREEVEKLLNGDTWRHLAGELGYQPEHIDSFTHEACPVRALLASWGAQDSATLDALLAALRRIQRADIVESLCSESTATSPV
Experimental: as §1

[16] = tested on: PC12 cells; test: Apoptosis of serum deprived PC12 cells, FACS Annexin V-FITC and PI; format: cell-based; details: serum free, 100 nM, 24 h, n = 8; serum free control 53.5%±17.6%
Experimental: (§4) PC12 cells were cultured in 12-well plates, and 24 h later they were transfected with the si/shRNAs for TrkA and/or p75^NTR. […] Apoptosis was quantified 24 h later with annexin V-FITC and PI (BD Pharmingen) according to our protocol.

[17] = tested on: nnr5 cells; test: Apoptosis of nnr5 cells (PC12 clone expressing only p75NTR); format: cell-based; details: DHEA 100 nM, NGF 100 ng/ml
Experimental: PC12 cells were obtained from LGC Promochem (LGC Standards GmbH, Germany) and nnr5 cells from Dr. C.F. Ibáñez (Karolinska Institute). Both cell types were grown in RPMI 1640 containing 2 mM L-glutamine, 15 mM HEPES, 100 units/ml penicillin, 0.1 mg/ml streptomycin, and 10% horse serum, 5% fetal calf serum (both charcoal-stripped for removing endogenous steroids) at 5% CO2 and 37°C. HEK-293 cells were obtained from LGC Promochem. Cells were grown in DMEM medium containing 10% fetal bovine serum (charcoal-stripped for removing endogenous steroids), 100 units/ml penicillin, and 0.1 mg/ml streptomycin, at 5% CO2 and […]. HEK-293 and PC12 cells were transfected with Lipofectamine 2000 (InVitrogen) according to manufacturer's instructions. Transfected cells were typically used on the 2nd day after transfection.
as §4

[18] = tested on: PC12 cell membranes; test: [3H]-DHEA saturation binding to PC12 cell membranes; details: membranes from PC12 cells transfected with siRNA against GAPDH; listed as [^3H]-DHEA; read-out: KD of [3H]-DHEA binding (Scatchard analysis)
[19] = tested on: TrkA; test: TrkA protein levels in serum deprived PC12 cells (immunoblotting); format: cell-based; details: serum deprived PC12, 12 to 48 h; 100 nM DHEA, 100 ng/ml NGF; n = 5, p<0.01
Experimental: as §2, §3

[20] = target: T4, rat TrkA receptor expressed in HEK293 cells (HEK293^TrkA) (rat, UniProt P35739 33-799); test: radioligand binding; homologous [125I]-NGF displacement with unlabeled NGF on membranes isolated from HEK293^TrkA and HEK293^p75NTR transfectants; details: one partner purified
T4 construct: TrkA (NGF receptor tyrosine kinase), rat, expressed from the pHA vector backbone; source: HEK293, transfected (Lipofectamine 2000); crude membranes and whole cells
T4 sequence (P35739 33-799): as the sequence (P35739 33-799) above

[21] = target: T5, rat p75^NTR receptor expressed in HEK293 cells (HEK293^p75NTR) (rat, UniProt P07174 30-425); test: as above; details: one partner purified
T5 construct: also called p75 neurotrophin receptor; source: HEK293, transfected (Lipofectamine 2000); crude membranes, whole cells and lysate
T5 sequence (looked up): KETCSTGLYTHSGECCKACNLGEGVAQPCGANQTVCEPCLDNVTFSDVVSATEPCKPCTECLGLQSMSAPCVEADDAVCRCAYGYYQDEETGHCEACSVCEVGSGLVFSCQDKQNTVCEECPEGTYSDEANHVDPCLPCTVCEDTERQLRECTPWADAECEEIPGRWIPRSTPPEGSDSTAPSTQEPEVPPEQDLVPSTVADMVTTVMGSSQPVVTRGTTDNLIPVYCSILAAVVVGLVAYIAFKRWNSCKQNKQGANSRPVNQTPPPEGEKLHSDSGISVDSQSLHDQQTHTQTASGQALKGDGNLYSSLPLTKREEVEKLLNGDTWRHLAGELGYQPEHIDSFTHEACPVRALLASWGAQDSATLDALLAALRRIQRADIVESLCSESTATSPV

[22] = target: T4, rat TrkA receptor expressed in HEK293 …; test: radioligand binding; heterologous displacement of 1 nM [3H]-DHEA (a steroid) by unlabeled NGF (10^-12-10^-6 M) on membranes (2 mg/ml) of HEK293^TrkA and HEK293^p75NTR cells, PBS pH 7.4 with protease inhibitors, collected on GF/B filters; details: one partner purified
[23] = target: T5, rat p75^NTR receptor expressed in …; test: as above; details: one partner purified

Sequence of p75NTR (Homo sapiens) (P08138 29-250): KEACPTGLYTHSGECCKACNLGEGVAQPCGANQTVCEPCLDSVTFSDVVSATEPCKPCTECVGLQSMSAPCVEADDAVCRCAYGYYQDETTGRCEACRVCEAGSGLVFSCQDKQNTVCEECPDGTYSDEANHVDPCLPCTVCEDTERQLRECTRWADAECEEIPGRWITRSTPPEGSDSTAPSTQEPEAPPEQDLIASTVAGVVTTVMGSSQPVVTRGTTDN

NGF (from UniProt P01138)
Kd [1]: 1 nM

CN(C)CCC=C1c2ccccc2CCc2ccccc21 [amitriptyline]
Kd [2]: 3000 nM

C[C@]12CC[C@H](OS(=O)(=O)O)CC1=CC[C@@H]1[C@@H]2CC[C@]2(C)C(=O)CC[C@@H]12 [DHEAS, dehydroepiandrosterone sulfate]
phosphorylation of TrkA [3]: rapidly induced | IC50 [4]: 8.1 ± 1.2 nM | IC50 [5]: 6.1 ± 1.1 nM

C[C@]12CC[C@H](O)CC1=CC[C@@H]1[C@@H]2CC[C@]2(C)C(=O)CC[C@@H]12 [DHEA, dehydroepiandrosterone]
phosphorylation of TrkA (Tyr490) [6]: strongly induced | phosphorylation of Shc, ERK1/2, and Akt kinases [7]: strongly increased | displacement of [125I]-NGF binding (in words) [8]: unable to effectively displace | Kd ([9]; 25°C for 30 min): 7.4 ± 1.75 nM | Kd ([9]; overnight incubation at 4°C): 7.8 ± 3.1 nM | displacement of [125I]-NGF binding (in words) [10]: unable to effectively displace | Kd ([11]; 25°C for 30 min): 5.6 ± 0.55 nM | Kd ([11]; overnight incubation at 4°C): 5.9 ± 1.7 nM | p75NTR receptor levels [12]: significantly decreased | effect on apoptotic sympathetic neurons after NGF withdrawal [13]: effectively compensated for NGF by decreasing the levels of apoptotic neurons | Fluoro Jade C and Caspase 3 positive neurons in the DRG [14]: significantly reduced | TUNEL-positive apoptotic neurons in the DRG [14]: decreased to levels shown in ngf+/− embryos | TrkA positive staining in the DRG [14]: significant increase | association of p75NTR with effectors TRAF6 and RIP2 [15]: efficiently induced the association | dissociation of RhoGDI from p75NTR receptors [15]: facilitating the dissociation | phosphorylation of TrkA [3]: strongly increased | increase of apoptosis (% of difference from serum supplemented cells) [16]: 6%±1.4% | effect on apoptosis of nnr5 cells [17]: induced apoptosis | Kd [18]: 1.07 ± 0.43 nM | TrkA receptor levels [19]: significantly increased

B1: nerve growth factor (NGF), unlabeled (ligand, UniProt P01139 122-241, looked up)
chain: SSTHPVFHMGEFSVCDSVSVWVGDKTTATDIKGKEVTVLAEVNINNSVFRQYFFETKCRASNPVESGCRGIDSKHWNSYCTTTHTFVKALTTDEKQAAWRFIRIDTACVCVLSRKATRRG
notes: nerve growth factor (NGF); The species of the NGF is told nowhere; also called unlabeled NGF
IC50 [20]: 0.3 ± 0.09 nM | IC50 [21]: 1.7 ± 0.38 nM | IC50 [22]: 0.8 ± 0.2 nM | IC50 [23]: 1.19 ± 0.45 nM
